# Test results reported in patent US9115127B2 (AMGEN INC., priority 2010, dated 2015).
# Target: T1, wild-type human ALK (cytoplasmic domain, amino acids 1058-1620, N-terminal GST fusion) (Homo sapiens, UniProt Q9UM73)
# T1 construct: The cytoplasmic domain (amino acids 1058-1620) of wild-type human ALK; GST (N); made in house; host or cells: SF9 insect cells
# Experiment: ALK Inhibition in Enzyme Assay (Lance TR-FRET kinase assay)
# Format: biochemical
# Method in brief: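 TR-FRET read-out (Eu-W1024 PT66 anti-phosphotyrosine plus streptavidin-allophycocyanin, 320 nm excitation) quantified biotinylated peptide phosphorylation by the purified kinase. Reaction ran 90 minutes at room temperature before quenching with 20 mM EDTA in Tris pH 7.5 buffer with NaCl, BSA and Tween-20.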
# T1 sequence (Q9UM73 1058-1620): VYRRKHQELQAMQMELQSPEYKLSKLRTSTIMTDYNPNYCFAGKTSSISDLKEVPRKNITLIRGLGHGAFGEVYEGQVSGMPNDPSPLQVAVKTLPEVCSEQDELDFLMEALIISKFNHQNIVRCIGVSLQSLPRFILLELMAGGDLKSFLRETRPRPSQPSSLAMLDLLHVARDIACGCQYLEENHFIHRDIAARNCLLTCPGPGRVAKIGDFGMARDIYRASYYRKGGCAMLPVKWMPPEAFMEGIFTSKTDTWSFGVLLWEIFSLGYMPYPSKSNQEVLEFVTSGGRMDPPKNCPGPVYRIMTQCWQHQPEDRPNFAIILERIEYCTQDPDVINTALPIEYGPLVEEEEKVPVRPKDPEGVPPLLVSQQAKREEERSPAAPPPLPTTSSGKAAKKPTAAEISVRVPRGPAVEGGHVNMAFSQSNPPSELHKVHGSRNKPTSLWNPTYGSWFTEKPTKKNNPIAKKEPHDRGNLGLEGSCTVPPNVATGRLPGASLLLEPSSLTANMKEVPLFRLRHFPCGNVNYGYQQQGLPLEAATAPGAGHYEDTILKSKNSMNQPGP
row,SMILES,IC50
1,"CC(C)NC(=O)[C@H]1CC[C@@H](n2/c(=N/C(=O)c3ccc(C#N)cc3)[nH]c3cnc(OCCN4CCCCC4)cc32)CC1 [Example 89, (E)-4-Cyano-N-(1-(cis-4-(isopropylcarbamoyl)cyclohexyl)-6-(2-(piperidin-1-yl)ethoxy)-1H-imidazo[4,5-c]pyridin-2(3H)-ylidene)benzamide]",< 50 nM
2,"CC(C)NC(=O)[C@H]1CC[C@@H](n2/c(=N/C(=O)c3ccncc3)[nH]c3cnc(OCCN4CCCCC4)cc32)CC1 [Example 90, (E)-N-(1-(cis-4-(Isopropylcarbamoyl)cyclohexyl)-6-(2-(piperidin-1-yl)ethoxy)-1H-imidazo[4,5-c]pyridin-2(3H)-ylidene)isonicotinamide]",< 50 nM
3,"CC(C)NC(=O)[C@H]1CC[C@@H](n2/c(=N/C(=O)c3cccc(C#N)c3)[nH]c3cnc(OCCN4CCCCC4)cc32)CC1 [Example 91, (E)-3-Cyano-N-(1-(cis-4-(isopropylcarbamoyl)cyclohexyl)-6-(2-(piperidin-1-yl)ethoxy)-1H-imidazo[4,5-c]pyridin-2(3H)-ylidene)benzamide]",< 50 nM
4,"CC(C)NC(=O)[C@H]1CC[C@@H](n2/c(=N/C(=O)c3cccc(C(F)(F)F)c3)[nH]c3cnc(OCCN4CCCCC4)cc32)CC1 [Example 92, (E)-N-(1-(cis-4-(Isopropylcarbamoyl)cyclohexyl)-6-(2-(piperidin-1-yl)ethoxy)-1H-imidazo[4,5-c]pyridin-2(3H)-ylidene)-3-(trifluoromethyl)benzamide]",< 50 nM
5,"CC(C)NC(=O)[C@H]1CC[C@@H](n2/c(=N/C(=O)c3cccc(S(C)(=O)=O)c3)[nH]c3cnc(OCCN4CCCCC4)cc32)CC1 [Example 93, (E)-N-(1-(cis-4-(Isopropylcarbamoyl)cyclohexyl)-6-(2-(piperidin-1-yl)ethoxy)-1H-imidazo[4,5-c]pyridin-2(3H)-ylidene)-3-(methylsulfonyl)benzamide]",1000 to 5000 nM
6,"CC(C)NC(=O)[C@H]1CC[C@@H](n2/c(=N/C(=O)c3ccc(F)cc3F)[nH]c3cnc(OCCN4CCCCC4)cc32)CC1 [Example 94, (E)-2,4-Difluoro-N-(1-(cis-4-(isopropylcarbamoyl)cyclohexyl)-6-(2-(piperidin-1-yl)ethoxy)-1H-imidazo[4,5-c]pyridin-2(3H)-ylidene)benzamide]",50 to 100 nM
7,"CC(C)NC(=O)[C@H]1CC[C@@H](n2/c(=N/C(=O)c3ccc(Br)cc3)[nH]c3cnc(OCCN4CCCCC4)cc32)CC1 [Example 95, (E)-4-Bromo-N-(1-(cis-4-(isopropylcarbamoyl)cyclohexyl)-6-(2-(piperidin-1-yl)ethoxy)-1H-imidazo[4,5-c]pyridin-2(3H)-ylidene)benzamide]",< 50 nM
8,"CC(C)NC(=O)[C@H]1CC[C@@H](n2/c(=N/C(=O)c3cccnc3)[nH]c3cnc(OCCN4CCCCC4)cc32)CC1 [Example 96, (E)-N-(1-(cis-4-(Isopropylcarbamoyl)cyclohexyl)-6-(2-(piperidin-1-yl)ethoxy)-1H-imidazo[4,5-c]pyridin-2(3H)-ylidene)nicotinamide]",< 50 nM
9,"CC(C)NC(=O)[C@H]1CC[C@@H](n2/c(=N/C(=O)c3ccnnc3)[nH]c3cnc(OCCN4CCCCC4)cc32)CC1 [Example 97, (E)-N-(1-(cis-4-(Isopropylcarbamoyl)cyclohexyl)-6-(2-(piperidin-1-yl)ethoxy)-1H-imidazo[4,5-c]pyridin-2(3H)-ylidene)pyridazine-4-carboxamide]",50 to 100 nM
10,"CC(C)NC(=O)[C@H]1CC[C@@H](n2/c(=N/C(=O)c3cc(F)cc(F)c3)[nH]c3cnc(OCCN4CCCCC4)cc32)CC1 [Example 98, (E)-3,5-Difluoro-N-(1-(cis-4-(isopropylcarbamoyl)cyclohexyl)-6-(2-(piperidin-1-yl)ethoxy)-1H-imidazo[4,5-c]pyridin-2(3H)-ylidene)benzamide]",< 50 nM
11,"C=CCNS(=O)(=O)c1cccc(C(=O)/N=c2\[nH]c3cnc(OCCN4CCCCC4)cc3n2[C@H]2CC[C@@H](C(=O)NC(C)C)CC2)c1 [Example 99, (E)-3-(N-Allylsulfamoyl)-N-(1-(cis-4-(isopropylcarbamoyl)cyclohexyl)-6-(2-(piperidin-1-yl)ethoxy)-1H-imidazo[4,5-c]pyridin-2(3H)-ylidene)benzamide]",100 to 1000 nM
12,"COc1ccc(C(=O)/N=c2\[nH]c3cnc(OCCN4CCCCC4)cc3n2[C@H]2CC[C@@H](C(=O)NC(C)C)CC2)cc1 [Example 100, (E)-N-(1-(cis-4-(Isopropylcarbamoyl)cyclohexyl)-6-(2-(piperidin-1-yl)ethoxy)-1H-imidazo[4,5-c]pyridin-2(3H)-ylidene)-4-methoxybenzamide]",50 to 100 nM
13,"CC(C)NC(=O)[C@H]1CC[C@@H](n2/c(=N/C(=O)c3ccc(F)c(Cl)c3)[nH]c3cnc(OCCN4CCCCC4)cc32)CC1 [Example 101, (E)-3-Chloro-4-fluoro-N-(1-(cis-4-(isopropylcarbamoyl)cyclohexyl)-6-(2-(piperidin-1-yl)ethoxy)-1H-imidazo[4,5-c]pyridin-2(3H)-ylidene)benzamide]",< 50 nM
14,"CC(C)NC(=O)[C@H]1CC[C@@H](n2/c(=N/C(=O)c3ccc(C(F)(F)F)cc3)[nH]c3cnc(OCCN4CCCCC4)cc32)CC1 [Example 102, (E)-N-(1-(cis-4-(Isopropylcarbamoyl)cyclohexyl)-6-(2-(piperidin-1-yl)ethoxy)-1H-imidazo[4,5-c]pyridin-2(3H)-ylidene)-4-(trifluoromethyl)benzamide]",100 to 1000 nM
15,"CC(C)NC(=O)[C@H]1CC[C@@H](n2/c(=N/C(=O)c3ccc(C#N)c(F)c3)[nH]c3cnc(OCCN4CCCCC4)cc32)CC1 [Example 103, (E)-4-Cyano-3-fluoro-N-(1-(cis-4-(isopropylcarbamoyl)cyclohexyl)-6-(2-(piperidin-1-yl)ethoxy)-1H-imidazo[4,5-c]pyridin-2(3H)-ylidene)benzamide]",< 50 nM
16,"CC(C)NC(=O)[C@H]1CC[C@@H](n2/c(=N/C(=O)c3ccc4cc[nH]c4c3)[nH]c3cnc(OCCN4CCCCC4)cc32)CC1 [Example 104, (E)-N-(1-(cis-4-(Isopropylcarbamoyl)cyclohexyl)-6-(2-(piperidin-1-yl)ethoxy)-1H-imidazo[4,5-c]pyridin-2(3H)-ylidene)-1H-indole-6-carboxamide]",100 to 1000 nM
17,"CNc1ccc(C(=O)/N=c2\[nH]c3cnc(OCCN4CCCCC4)cc3n2[C@H]2CC[C@@H](C(=O)NC(C)C)CC2)cc1 [Example 105, (E)-N-(1-(cis-4-(Isopropylcarbamoyl)cyclohexyl)-6-(2-(piperidin-1-yl)ethoxy)-1H-imidazo[4,5-c]pyridin-2(3H)-ylidene)-4-(methylamino)benzamide]",1000 to 5000 nM

# More lines, now with the values ahead:
row,IC50,SMILES
1,< 50 nM,"CC(C)NC(=O)[C@H]1CC[C@@H](n2/c(=N/C(=O)c3ccnc(F)c3)[nH]c3cnc(OCCN4CCCCC4)cc32)CC1 [Example 106, (E)-2-Fluoro-N-(1-(cis-4-(isopropylcarbamoyl)cyclohexyl)-6-(2-(piperidin-1-yl)ethoxy)-1H-imidazo[4,5-c]pyridin-2(3H)-ylidene)isonicotinamide]"
2,< 50 nM,"CC(C)NC(=O)[C@H]1CC[C@@H](n2/c(=N/C(=O)c3ccc(F)c(F)c3)[nH]c3cnc(OCCN4CCCCC4)cc32)CC1 [Example 107, (E)-3,4-Difluoro-N-(1-(cis-4-(isopropylcarbamoyl)cyclohexyl)-6-(2-(piperidin-1-yl)ethoxy)-1H-imidazo[4,5-c]pyridin-2(3H)-ylidene)benzamide]"
3,< 50 nM,"CC(C)NC(=O)[C@H]1CC[C@@H](n2/c(=N/C(=O)c3cccc(F)c3)[nH]c3cnc(OCCN4CCCCC4)cc32)CC1 [Example 108, (E)-3-Fluoro-N-(1-(cis-4-(isopropylcarbamoyl)cyclohexyl)-6-(2-(piperidin-1-yl)ethoxy)-1H-imidazo[4,5-c]pyridin-2(3H)-ylidene)benzamide]"
4,1000 to 5000 nM,"CC(C)NC(=O)[C@H]1CC[C@@H](n2/c(=N/C(=O)c3ccc4ccn(C)c4c3)[nH]c3cnc(OCCN4CCCCC4)cc32)CC1 [Example 109, (E)-N-(1-(cis-4-(Isopropylcarbamoyl)cyclohexyl)-6-(2-(piperidin-1-yl)ethoxy)-1H-imidazo[4,5-c]pyridin-2(3H)-ylidene)-1-methyl-1H-indole-6-carboxamide]"
5,1000 to 5000 nM,"CC(C)NC(=O)[C@H]1CC[C@@H](n2/c(=N/C(=O)c3ccccn3)[nH]c3cnc(OCCN4CCCCC4)cc32)CC1 [Example 110, (E)-N-(1-(cis-4-(Isopropylcarbamoyl)cyclohexyl)-6-(2-(piperidin-1-yl)ethoxy)-1H-imidazo[4,5-c]pyridin-2(3H)-ylidene)picolinamide]"
6,< 50 nM,"CC(C)NC(=O)[C@H]1CC[C@@H](n2/c(=N/C(=O)c3cc(F)cc(C#N)c3)[nH]c3cnc(OCCN4CCCCC4)cc32)CC1 [Example 111, (E)-3-Cyano-5-fluoro-N-(1-(cis-4-(isopropylcarbamoyl)cyclohexyl)-6-(2-(piperidin-1-yl)ethoxy)-1H-imidazo[4,5-c]pyridin-2(3H)-ylidene)benzamide]"
7,5000 to 10000 nM,"CC(C)NC(=O)[C@H]1CC[C@@H](n2/c(=N/C(=O)C3CCCCC3)[nH]c3cnc(OCCN4CCCCC4)cc32)CC1 [Example 112, cis-4-((E)-2-(Cyclohexanecarbonylimino)-6-(2-(piperidin-1-yl)ethoxy)-2,3-dihydro-1H-imidazo[4,5-c]pyridin-1-yl)-N-isopropylcyclohexanecarboxamide]"
8,100 to 1000 nM,"COc1cc(C(=O)/N=c2\[nH]c3cnc(OCCN4CCCCC4)cc3n2[C@H]2CC[C@@H](C(=O)NC(C)C)CC2)ccc1F [Example 113, (E)-4-Fluoro-N-(1-(cis-4-(isopropylcarbamoyl)cyclohexyl)-6-(2-(piperidin-1-yl)ethoxy)-1H-imidazo[4,5-c]pyridin-2(3H)-ylidene)-3-methoxybenzamide]"
